Laboratory results: patent US4918056A, “2-substituted arabinopyranosyl nucleosides and nucleotides” (priority 1986, dated 1990)
pIC50: −log10 of the molar value. Blank lines part the entries; values can stand above or below the molecule they belong to.

What was measured:
L1210 leukemia cells [1] = test: L1210 leukemia cell growth inhibition (48 hr, Coulter counter); format: cell-based, mouse; settings: for pIC50: Mus musculus, L1210, RPMI 1640, 10% fetal calf serum; for growth inhibitory activity in words: compared with 85024
Experimental: Compounds 85024, 85023, 85058, 85027 and 85060 having a glycosidic linkage between the 2'carbon of the arabinose (in pyranose configuration) and base were evaluated for their growth inhibitory action on L1210 leukemia cells maintained in RPMI 1640 medium supplemented with 10% fetal calf serum and 16 mM HEPES, pH 7.2. Cellular growth inhibition was determined by incubating […] for 48 hr in 2 ml of media containing varying concentrations of drugs. Cell growth inhibition (50% growth inhibitory concentration, IC50) was determined after counting cells with a Coulter counter (Bernacki et al., Cancer Res. 45, 695, 1985). Drug concentrations which inhibited cell growth by 50% (IC50) are listed for each compound in Table 1.

L1210 leukemia cells [2] = test: Reversal of L1210 growth inhibition by salvageable nucleosides; format: cell-based, mouse; settings: for pIC50: Mus musculus
Experimental: Reversal studies were conducted as follows: […], 85027 or 5-FdUr were added at various concentrations near their IC50 to cultures of L1210 leukemia cells, maintained in PRMI 1640 medium supplemented with 10% fetal calf serum and 16mM HEPES, pH 7.2 as described in Example 9. Nucleosides including thymidine (1×10^-5 M), uridine (1×10^-4 M), deoxyuridine ([…]), adenosine (1×10^-4 M), or guanosine (1×10^-5 M) were also added to identical drug (85024, 85027 or 5-FdUr) containing L1210 leukemia cultures. Cellular growth inhibition or its prevention by the addition of salvageable nucleosides was determined 48 hours later by counting cells using an electronic Coulter Counter.

L1210 leukemia = test: Therapeutic activity of 85027, 5-FU and ara-C in DBA/2 mice with L1210 leukemia; format: in vivo, mouse (DBA/2); design: Mean ± SD survival: unit not given here; settings: for Median survival: control 6; for Mean ± SD survival: control 6.4 ± 0.2
Experimental: The therapeutic activity of 85027 was compared with that of 5-Fluorouracil (5-FU) and Cytosine Arabinoside (ara-C) in DBA/2 mice with L1210 Leukemia. (Table 3) Tests were performed in accordance with the procedure described in Example 8. […] 5-FU was administered i.p. on days 1,3 and 6.

L1210/ara-C leukemia = test: Therapeutic activity in DBA/2N mice with ara-C resistant L1210 leukemia
Experimental: (§1) In conducting the evaluations, the activity was tested against intraperitoneal (i.p.) implanted leukemia in mice.
(§2) DBA/2N female mice (20 g) were implanted i.p. with 1×10^6 L1210 leukemia cells on day 0. Mice were weighed and inspected for tumor growth and survival daily. […] Dosages varied from 1 to 800 mg/kg/day (mkd).
(§3) Survival time was measured in days after tumor implantation. % ILS (increase in life span) was based on mean survival.
(§4) Testing was followed as described in the NCI protocol and evaluation by comparison of median survival time (ST) of the treated animals to that of the control animals by the percentage increase in % ILS.
(§5) Drug resistant L1210 leukemia cell sublines were obtained from the National Cancer Institute. […] Eight mice were used as controls and five mice for each drug dosage group. Drugs were administered i.p. once per day on days 1, 2, 3, 4 and 5.

L1210/5-FU leukemia = test: Therapeutic activity in DBA/2N mice with 5-FU resistant L1210 leukemia; format: in vivo, mouse (DBA/2N female)
Experimental: as §1, §2, §3, §4, §5

[3] = 5 mkd i.p. (head: × 5; text: × 3, days 1, 3 and 6)
[4] = 25 mkd i.p. (head: × 5; text: × 3, days 1, 3 and 6)

SMILES: COC1OC[C@@H](OC(C)=O)[C@@H](OC(C)=O)[C@]1(F)n1cc(C)c(=O)[nH]c1=O (stereo partly drawn) [compound 85060, Methyl 3,4-di-0-acetyl-2-deoxy-2(R)-[1H,3H-2,4-dioxo-5-methyl-1-pyrimidinyl]-2-fluoro-α-D-arabinopyranoside [5c] and Methyl 3,4-di-0-acetyl-2-deoxy-2(R)-[1H,3H-2,4-dioxo-5-methyl-1-pyrimidinyl]-2-fluoro-β-D-arabinopyranoside [6c]]
- pIC50 (L1210 leukemia cells [1]): < 4.00
- growth inhibitory activity in words (L1210 leukemia cells [1]): inactive

- pIC50 (L1210 leukemia cells [2]; L1210, with 1×10^-5 M thymidine): < 8.00
- pIC50 (L1210 leukemia cells [2]; L1210, without added thymidine): 9.52
SMILES: O=c1[nH]c(=O)n([C@H]2C[C@H](O)[C@@H](CO)O2)cc1F [5-FdUr, 5-Fluorodeoxyuridine, reference compound]

SMILES: COC1OC[C@H]2OC(C)(C)O[C@H]2C1(F)n1ccc(=O)[nH]c1=O (mixture of isomers) [compound 85023, Methyl 2-deoxy-3,4-0-isopropylidene-2-rac-[1H,3H-2,4-dioxo-1-pyrimidinyl]-2-fluoro-α-D-arabinopyranoside [5g] and Methyl 2-deoxy-3,4-0-isopropylidene-2-rac-[1H,3H-2,4-dioxo-1-pyrimidinyl]-2-fluoro-β-D-arabinopyranoside [6g]]
- pIC50 (L1210 leukemia cells [1]): < 4.00
- growth inhibitory activity in words (L1210 leukemia cells [1]): loss in biological inactivity

SMILES: CCCCCC(=O)O[C@@H]1[C@H](OC(=O)CCCCC)COC(OC)[C@@]1(F)n1ccc(=O)[nH]c1=O (stereo partly drawn) [compound 85058, Methyl 2-deoxy-2(R)-[1H,3H-2,4-dioxo-1-pyrimidinyl]-2-fluoro-3,4-di-0-hexanoyl-α-D-arabinopyranoside [5d] and Methyl 2-deoxy-2(R)-[1H,3H-2,4-dioxo-1-pyrimidinyl]-2-fluoro-3,4-di-0-hexanoyl-β-D-arabinopyranoside [6d]]
- pIC50 (L1210 leukemia cells [1]): 4.40
- growth inhibitory activity in words (L1210 leukemia cells [1]): did not significantly affect activity

SMILES: Nc1ccn([C@@H]2O[C@H](CO)[C@@H](O)[C@@H]2O)c(=O)n1 [ara-C, Cytosine Arabinoside]
- Survival Range (L1210 leukemia; 50 mkd × 5 i.p.): 9 to 14 days
- Median survival (L1210 leukemia; 50 mkd × 5 i.p.): 14 days
- Mean ± SD survival (L1210 leukemia; 50 mkd × 5 i.p.): 13.0 ± 1.0
- Survival Range (L1210 leukemia; 100 mkd × 5 i.p.): 14 to 15 days
- Median survival (L1210 leukemia; 100 mkd × 5 i.p.): 14 days
- Mean ± SD survival (L1210 leukemia; 100 mkd × 5 i.p.): 14.4 ± 0.2
- Survival Range (L1210 leukemia; 200 mkd × 5 i.p.): 8 to 19 days
- Median survival (L1210 leukemia; 200 mkd × 5 i.p.): 9 days
- Mean ± SD survival (L1210 leukemia; 200 mkd × 5 i.p.): 12.4 ± 2.3
- % ILS (increase in life span) (L1210 leukemia; ara-C, 50 mkd × 5 i.p., p < .05): 104%
- % ILS (increase in life span) (L1210 leukemia; ara-C, 100 mkd × 5 i.p., p < .01): 126%
- % ILS (increase in life span) (L1210 leukemia; ara-C, 200 mkd × 5 i.p., p < .01): 95%
- effect on lifespan (L1210 leukemia; i.p. 5 day schedule, 50, 100 and 200 mg/kg): most effective causing a doubling of lifespan
- Survival Range (L1210/ara-C leukemia; 100 mkd × 5 i.p.): 7-7 days
- % ILS (increase in life span) (L1210/ara-C leukemia; 100 mkd × 5 i.p., NS): 0%
- Median survival (L1210/ara-C leukemia; 100 mkd × 5 i.p., control 7): 7 days
- Mean ± SD survival (L1210/ara-C leukemia; 100 mkd × 5 i.p., control 7.1 + 0.1): 0 days
- therapeutic effect (L1210/ara-C leukemia; mice with L1210/ara-C leukemia (Table 4)): no therapeutic effect
- Mean Animal Weight (L1210/ara-C leukemia; mouse, in vivo, ip): 20.0 g

SMILES: O=c1[nH]cc(F)c(=O)[nH]1 [5-FU, 5-Fluorouracil]
- therapeutic effect (L1210/5-FU leukemia; 25 mkd × 5): did not
- % ILS (increase in life span) (L1210/5-FU leukemia; 25 mkd × 5 i.p.): 12%
- Mean Animal Weight (L1210/5-FU leukemia; 25 mkd × 5 i.p.): 17.6 g
- Survival Range (L1210/5-FU leukemia; 25 mkd × 5 i.p.): 5 to 9 days
- Median survival (L1210/5-FU leukemia; 25 mkd × 5 i.p., control 9): 8 days
- Mean ± SD survival (L1210/5-FU leukemia; 25 mkd × 5 i.p., control 9.25 ± 0.2): 7.6 ± 0.7 days
- % ILS (increase in life span) (L1210 leukemia; 5-FU, 5 mkd i.p. (head: × 5; text: × 3, days 1, 3 and 6), p < .01): 41%
- % ILS (increase in life span) (L1210 leukemia; 5-FU, 25 mkd i.p. (head: × 5; text: × 3, days 1, 3 and 6), p < .01): 88%
- % ILS (increase in life span) (L1210 leukemia; 5-FU, 50 mkd × 5 i.p., p < .01): 34%
- % ILS (increase in life span) (L1210 leukemia; 5-FU, 100 mkd × 5 i.p., p < .05): 22%
- % ILS (increase in life span) (L1210 leukemia; 5-FU, 200 mkd × 5 i.p., p < .05): 22%
- Survival Range (L1210 leukemia; [3]): 9-9 days
- Median survival (L1210 leukemia; [3]): 9 days
- Mean ± SD survival (L1210 leukemia; [3]): 9
- Survival Range (L1210 leukemia; [4]): 12-12 days
- Median survival (L1210 leukemia; [4]): 12 days
- Mean ± SD survival (L1210 leukemia; [4]): 12
- toxicity to mice (L1210 leukemia; 50, 100 and 200 mkd × 5 i.p.): extremely toxic to mice causing severe weight loss
- weight to which mice fell (severe weight loss) (L1210 leukemia; 50, 100 and 200 mkd × 5 i.p.): 13 to 14 g
- Survival Range (L1210 leukemia; 50 mkd × 5 i.p.): 8 to 9 days
- Median survival (L1210 leukemia; 50 mkd × 5 i.p.): 9 days
- Mean ± SD survival (L1210 leukemia; 50 mkd × 5 i.p.): 8.6 ± 0.2
- Survival Range (L1210 leukemia; 100 mkd × 5 i.p.): 7 to 8 days
- Median survival (L1210 leukemia; 100 mkd × 5 i.p.): 8 days
- Mean ± SD survival (L1210 leukemia; 100 mkd × 5 i.p.): 7.8 ± 0.2
- Survival Range (L1210 leukemia; 200 mkd × 5 i.p.): 7 to 8 days
- Median survival (L1210 leukemia; 200 mkd × 5 i.p.): 8 days
- Mean ± SD survival (L1210 leukemia; 200 mkd × 5 i.p.): 7.8 ± 0.2

SMILES: COC1OC[C@@H](OC(C)=O)[C@@H](OC(C)=O)[C@]1(F)n1cc(F)c(=O)[nH]c1=O (stereo partly drawn) [compound 85027, Methyl 3,4-di-0-acetyl-2-deoxy-2(R)-[1H,3H-2,4-dioxo-5-fluoro-1-pyrimidinyl]-2-fluoro-α-D-arabinopyranoside [5b] and Methyl 3,4-di-0-acetyl-2-deoxy-2(R)-[1H,3H-2,4-dioxo-5-fluoro-1-pyrimidinyl]-2-fluoro-β-D-arabinopyranoside[6b]]
- pIC50 (L1210 leukemia cells [1]): 4.47
- Survival Range (L1210 leukemia; 50 mkd × 5 i.p.): 8-8 days
- Median survival (L1210 leukemia; 50 mkd × 5 i.p.): 8 days
- Mean ± SD survival (L1210 leukemia; 50 mkd × 5 i.p.): 8 ± 0
- Survival Range (L1210 leukemia; 100 mkd × 5 i.p.): 7 to 8 days
- Median survival (L1210 leukemia; 100 mkd × 5 i.p.): 8 days
- Mean ± SD survival (L1210 leukemia; 100 mkd × 5 i.p.): 7.8 ± 0.2
- Survival Range (L1210 leukemia; 200 mkd × 5 i.p.): 8 to 9 days
- therapeutic activity compared with araC (L1210 leukemia; 200 mkd × 5 i.p.): less therapeutic activity than araC
- Median survival (L1210 leukemia; 200 mkd × 5 i.p.): 8 days
- Mean ± SD survival (L1210 leukemia; 200 mkd × 5 i.p.): 8.2 ± 0.22
- % ILS (increase in life span) (L1210 leukemia; 85027, 50 mkd × 5 i.p., p < 0.01): 25%
- % ILS (increase in life span) (L1210 leukemia; 85027, 100 mkd × 5 i.p., p < 0.05): 22%
- % ILS (increase in life span) (L1210 leukemia; 85027, 200 mkd × 5 i.p., p < 0.01): 29%
- cross resistance to ara-C and 5-FU (L1210/ara-C leukemia; summary of L1210/ara-C and L1210/5-FU tests): not cross resistant
- reversal of cellular cytotoxicity by exogenous nucleosides (L1210 leukemia cells [2]; exogenous thymidine, uridine or deoxyuridine, tissue culture): not reversed by exogenous thymidine, uridine or deoxyuridine
- effect of added nucleoside on the IC50 (L1210 leukemia cells [2]; thymidine (1×10^-5 M), uridine (1×10^-4 M) or deoxyuridine (1×10^-5 M)): < 10%
